Laboratory results from US9393221B2, “Methods and compounds for reducing intracellular lipid storage” (THE GENERAL HOSPITAL CORPORATION, priority 2011, dated 2016).
Counter-ions that a name gives are not always drawn.

How the values were obtained:
[1] = system: ATGL-KO iPSCs; experiment: High throughput iPSC chemical screening, Oil Red O (ORO) lipid accumulation; type: cell-based, mouse; details: for Rank in normalized ORO score from screen: glycolytic switch compounds; for Z-score: normalized ORO level vs DMSO-treated cells, compound present during 7 days differentiation, 96-well, negative = decrease in lipid accumulation
[2] = system: ATGL-KO iPSCs; experiment: Cellular metabolism assay (OCR, ECAR); type: cell-based, mouse; details: for extracellular acidification rate (ECAR) / oxygen consumption rate (OCR): day 9 differentiated cells pre-treated overnight at screen concentration; for OCR/ECAR ratio after addition of CCCP: pre-treated cells (FIG. 7d)
Experimental: (§1) FIGS. 7a-7g depict that glycolytic switch inducers modulate the metabolic profile of WT and KO iPSCs. Measurement of (FIG. 7a) oxygen consumption rate (OCR) and (FIG. 7b) extracellular acidification rate (ECAR) in WT and KO iPSCs at day 10 of differentiation following compound pre-treatment for 16 h. Data are expressed as mean±s.d. (n=10 samples, with 3 measurements each) relative to DMSO-treated WT cells. (*P<0.001, student's t-test between compound-treated and DMSO ? treated cells of same type. **P<0.001, student's t-test between DMSO-treated WT and KO cells). Measurement of OCAR/ECAR ratios for drug-treated (FIG. 7c) WT and (FIG. 7d) KO iPSCs following treatment carbonyl cyanide m-chlorophenyl hydrazone (CCCP), at the time indicated (arrow). Antimycin, an electron transport chain inhibitor, was added to each well at the end of the assay to verify that mitochondrial function was intact in drug-treated cells. A schematic model of ATGL ? mediated lipid metabolism in shown for (FIG. 7e) WT cells, (FIG. 7f) KO cells, and (FIG. 7g) drug-treated KO cells.
(§2) We next investigated whether the top-scoring compounds with reported glycolytic switch properties could in fact modulate the OCR and ECAR of differentiated WT and KO iPSCs. We pre-treated day 9 differentiated cells overnight with mefloquine, vinpocetine, and perhexyline at their screen concentrations (Table 3) and measured the changes in OCR and ECAR. […] This is consistent with the increased adaptation to glucose in ATGL-KO cells.
(§3) To determine whether the glycolytic switch inducers work through common or distinct mechanisms, we next examined how the responses of ATGL-KO and WT cells to challenge with carbonyl cyanide m-chlorophenyl hydrazone (CCCP) differed upon pre-treatment with glycolytic switch inducers. CCCP is an uncoupler of the mitochondrial hydrogen gradient that induces maximal cellular oxidative respiration (Goldsby et al., 1963). […] This was due entirely to an increase in OCAR, as the ECAR levels remained relatively unchanged (data not shown).
(§4) ATGL-KO and WT iPSCs were differentiated as EBs to day 9, then collagenase-dissociated and re-plated onto gelatin-coated XF24 plates (Seahorse Bioscience, Andover, Mass.) at a density of 250,000 cells/well. Following an overnight incubation (12-16 hrs) in differentiation medium supplemented with drugs or DMSO, the cells were acclimated to atmospheric CO2 in drug-containing buffer-free medium (Wu, M. et al., 2007) for 1 hour at 37° C. Oxygen consumption rates (OCR) and extracellular acidification rates (ECAR) were measured on the Seahorse Extracellular Flux 24 Analyzer using previously established procedures (Gohil et al., 2010; Wu, M. et al., 2007) and normalized against cell number as assessed by the resazurin assay described above. In all wells, antimycin, an electron transport chain inhibitor, was added at the end of the assay to ascertain that mitochondrial function in the drug-treated cells had been intact and that the OCR and ECAR results were not due to direct mitochondrial toxicity effects from drug treatment.

[3] = system: WT iPSCs; experiment: Cellular metabolism assay (OCR, ECAR); type: cell-based, mouse; details: for extracellular acidification rate (ECAR) / oxygen consumption rate (OCR): day 9 differentiated cells pre-treated overnight at screen concentration; for OCR/ECAR ratio after addition of CCCP: pre-treated cells (FIG. 7c)
Experimental: as §1, §2, §3, §4

[4] = system: ATGL-KO mice; experiment: 18-week observer-blinded placebo-controlled treatment study; type: in vivo, mouse; details: for cardiac function (echocardiography): 14 weeks of age; for overall triglyceride content in the heart: 14 weeks old ATGL-KO mice (FIG. 8d)
Excerpt: FIGS. 8a-8f show graphs of the in vivo validation of the drug hit efficacy on ATGL-KO mice. (FIG. 8a) Kaplan-Meier survival plot of ATGL-KO mice treated with Mefloquine (N=15), Perhexyline (N=15), Vinpocetin low dose (N=15), Vinpocetin high dose (N=15), or water alone (N=15) (FIG. 8b) Contractile function of wild type mice treated with Mefloquine (Mef), Perhexyline (Per), Vinpocetin (Vin), and water (None) at 3 weeks of age before drug treatment (black) and at 18 weeks of age (white) after drug treatment. (FIG. 8c) Contractile function of ATGL-KO mice treated with Mef, Per, Vin, and water at 3 weeks of age before drug treatment (black) and at 10 (gray), and 14 (white) weeks of age after drug treatment. (FIG. 8d) Measurement of triglyceride content in hearts of 14 weeks old wild type (WT) and ATGL-KO (KO) mice after treatment with the indicated drugs. V (H)—vinpocetin high dose, V (L)—vinpocetin low dose. (FIG. 8e) Measurement of triglyceride content in the liver, lung, and kidney of WT mice (gray) and ATGL-KO mice treated with Per (red), Mef (green), V (H) (blue), V (L) (orange), or water (black). (FIG. 8f) Quantitative PCR analysis of metabolic gene expression in the hearts of 14 weeks old ATGL-KO mice treated with water (black), Per (red), and Mef (green) and in the hearts of age-matched WT mice (gray).
We designed an 18-week observer-blinded placebo-controlled study treating both wild type and ATGL-KO mice with mefloquine, perhexyline, and high and low doses of vinpocetin starting from 3 weeks after birth. We assess the survival of each animal throughout the entire treatment course. We also measured the cardiac function of each animal before treatment and at 10 and 14 weeks of age. […] The effect of these drugs on triglyceride content was observed variably in other tissues such as liver, lung, and kidney (FIG. 8e). While these drugs were able to elicit a similar reduction in triglyceride content, they appear to do so by recruiting genes involved in distinct pathways. (FIG. 8f)

[5] = system: NLSD-M human iPSCs; experiment: TG content in differentiated human iPSCs; type: cell-based; details: differentiated human NLSD-M iPSCs (FIG. 9b)

Structure (SMILES) | Rank in normalized ORO score from screen [1] | Z-score [1] | impact on OCR in KO cells compared to WT cells [2] | extracellular acidification rate (ECAR) [2] | oxygen consumption rate (OCR) [2] | OCR/ECAR ratio after addition of CCCP [2] | extracellular acidification rate (ECAR) [3] | oxygen consumption rate (OCR) [3] | OCR/ECAR ratio after addition of CCCP [3] | cardiac function (echocardiography) [4] | overall triglyceride content in the heart [4] | intracellular lipid content (TG content) [5]
C1CCC(C(CC2CCCCN2)C2CCCCC2)CC1 (centres unmarked) [Perhexiline maleate] | 4 | −2.3117 | smaller impact on OCR in KO cells compared to WT cells | increased ECAR | decreased OCR | no increase in the OCR/ECAR ratio | increased ECAR | decreased OCR | no increase in the OCR/ECAR ratio | echocardiographic improvements in cardiac function | reduction in the overall triglyceride content in the heart | 
OC(c1cc(C(F)(F)F)nc2c(C(F)(F)F)cccc12)C1CCCCN1 (centres unmarked) [Mefloquine hydrochloride] | 3 | −2.3573 |  | increased ECAR | decreased OCR | increased the ratio of OCAR/ECAR | increased ECAR | decreased OCR | increased the ratio of OCAR/ECAR | echocardiographic improvements in cardiac function | reduction in the overall triglyceride content in the heart | significantly reduce intracellular lipid content
CCOC(=O)C1=C[C@]2(CC)CCCN3CCc4c(n1c1ccccc41)[C@@H]32 [Vinpocetine] | 2 | −2.4105 |  | increased ECAR | decreased OCR | increased the ratio of OCAR/ECAR | increased ECAR | decreased OCR | increased the ratio of OCAR/ECAR |  | reduction in the overall triglyceride content in the heart | 
CC(C)[N+](C)(CCOC(=O)C1c2ccccc2Oc2ccccc21)C(C)C [Propantheline bromide] |  | −0.9862 |  |  |  |  |  |  |  |  |  | 
O=C(O)CN(CCN(CC(=O)O)CC(=O)O)CCN(CC(=O)O)CC(=O)O [Pentetic acid] |  | 0.9077 |  |  |  |  |  |  |  |  |  | 
CC(=O)NC1CCSC1=O (racemic) [N-Acetyl-DL-homocysteine Thiolactone] |  | 0.1772 |  |  |  |  |  |  |  |  |  | 
N=C(N)N/N=C/c1c(Cl)cccc1Cl [Guanabenz acetate] |  | −0.3551 |  |  |  |  |  |  |  |  |  | 
CCOC(=O)c1cncn1[C@H](C)c1ccccc1 [Etomidate] |  | 0.2274 |  |  |  |  |  |  |  |  |  | 
CN(C)CCC=C1c2ccccc2C=Cc2ccccc21 [Cyclobenzaprine hydrochloride] | 579 | −0.1421 |  |  |  |  |  |  |  |  |  | 
